This note sets out measurements from US20220380374A1, “1,4-DIHYDROBENZO[D]PYRAZOLO[3,4-F][1,3]DIAZEPINE DERIVATIVES AND RELATED COMPOUNDS AS LRRK2, NUAK1 AND/OR TYK2 KINASE MODULATORS FOR THE TREATMENT OF E.G. AUTOIMMUNE DISEASE” (Origenis GMBH, priority 2019, published 2022).

One may read the pIC50 as −log10 of the IC50, conventionally taken in molar units.

pIC50: −log10 of the molar value.

The target of assay [1] is T1, wt human TYK2, catalytic site (Homo sapiens, UniProt P29597).
T1 construct: 2 nM wt human TYK2, catalytic site (SignalChem/CAN); purchased SignalChem/CAN
T1 sequence (P29597 897-1176 limits assumed): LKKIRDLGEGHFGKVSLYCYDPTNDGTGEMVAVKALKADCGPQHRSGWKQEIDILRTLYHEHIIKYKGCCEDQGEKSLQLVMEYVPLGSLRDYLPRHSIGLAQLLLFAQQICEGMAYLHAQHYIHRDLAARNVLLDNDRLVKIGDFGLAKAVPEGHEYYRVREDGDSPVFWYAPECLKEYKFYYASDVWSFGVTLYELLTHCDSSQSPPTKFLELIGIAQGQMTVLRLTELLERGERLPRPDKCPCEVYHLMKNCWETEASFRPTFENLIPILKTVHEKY
The assay can be described thus: HTRF KinEASE assay, TYK2. In kind it is biochemical. As to conditions: 1 μM ATP; read-out: IC50, inhibitory activity toward TYK2. The method, then:
Basic protocol for HTRF KinEASE assay (Cisbio/FRA) inhibitor studies involved two steps: Enzymatic step: Addition of 4 μl of test compound in corresponding DMSO dilutions, 4 μl of kinase/substrate mixture, 2 μl of ATP into 384 well small volume plates. Incubation for at least 30 minutes at room temperature.
Detection step: Addition of 5 μl antibody and 5 μl streptavidin-XL665, read plate after 60 minutes. Data analysis of emission ratios according to KinEASE assay protocol.
Kinase and assay components were adjusted to final concentrations according to the kit protocol. For TYK2: 2 nM wt human TYK2, catalytic site (SignalChem/CAN), 1 μM HTRF KinEASE-TK Substrate-biotin, 1 μM ATP in 1× Kinase Buffer

For assay [2], the target named is T2, wt human NUAK1, full length (Homo sapiens, UniProt O60285).
T2 construct: 8 nM wt human NUAK1, full length (ThermoFisher/USA); purchased ThermoFisher/USA
T2 sequence (O60285 1-661): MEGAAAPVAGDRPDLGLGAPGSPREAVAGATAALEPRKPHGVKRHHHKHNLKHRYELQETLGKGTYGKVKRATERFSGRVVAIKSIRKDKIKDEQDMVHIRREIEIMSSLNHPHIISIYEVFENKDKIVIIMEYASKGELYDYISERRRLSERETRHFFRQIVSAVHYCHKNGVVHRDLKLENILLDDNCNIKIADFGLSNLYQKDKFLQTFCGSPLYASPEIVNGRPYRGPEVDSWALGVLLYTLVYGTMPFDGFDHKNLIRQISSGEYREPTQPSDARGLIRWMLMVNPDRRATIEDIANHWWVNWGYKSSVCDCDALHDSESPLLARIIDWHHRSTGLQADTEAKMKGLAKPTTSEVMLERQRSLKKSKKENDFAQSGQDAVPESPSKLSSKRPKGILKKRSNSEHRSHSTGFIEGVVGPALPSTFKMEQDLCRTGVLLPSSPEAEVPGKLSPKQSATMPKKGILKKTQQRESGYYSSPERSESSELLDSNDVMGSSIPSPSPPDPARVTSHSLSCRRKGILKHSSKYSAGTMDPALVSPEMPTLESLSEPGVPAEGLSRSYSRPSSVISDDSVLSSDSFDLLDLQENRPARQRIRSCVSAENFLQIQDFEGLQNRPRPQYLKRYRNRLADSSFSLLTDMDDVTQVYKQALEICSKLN
In words: TR-FRET LanthaScreen Eu Kinase Binding Assay, NUAK1. To be noted: 5 nM Kinase Tracer 236; read-out: IC50, inhibitory activity toward NUAK1. The method in brief: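 TR-FRET tracer-displacement binding with 8 nM full-length wild-type human NUAK1, 2 nM Eu-anti-His antibody and 5 nM Kinase Tracer 236 in 1× Kinase Buffer A (final). Compound, kinase/antibody and tracer incubated 1 h at room temperature; emission ratios analysed per kit protocol.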
In general terms: TR-FRET usually uses a lanthanide donor and a delayed reading to cut background.

For `Nc1ccc2c(c1)-c1[nH]ncc1N=C(c1c(F)cccc1F)N2` [Compound 103, 5-(2,6-difluorophenyl)-1,6-dihydrobenzo[d]pyrazolo[3,4-f][1,3]diazepin-9-amine], the values for the pIC50 in assay [1] and in assay [2] were 6.00 to 7.00 and 7.00 to 8.00, respectively.

In the case of `O=C(NC1CCOCC1)c1ccc2c(n1)N=C(c1c(F)cccc1F)Nc1cn[nH]c1-2` [Compound 105, 5-(2,6-difluorophenyl)-N-(tetrahydro-2H-pyran-4-yl)-1,4-dihydropyrazolo[4,3-d]pyrido[3,2-f][1,3]diazepine-8-carboxamide], the pIC50 is 7.00 to 8.00 in assay [1] and 6.00 to 7.00 in assay [2].

As to `COc1cccc(F)c1C1=Nc2cn[nH]c2-c2ccccc2N1` [Compound 114, 5-(2-fluoro-6-methoxyphenyl)-1,6-dihydrobenzo[d]pyrazolo[3,4-f][1,3]diazepine], the pIC50 in assay [1] and in assay [2] was 6.00 to 7.00 in each case.

For `Cc1ccc2c(c1)-c1[nH]ncc1N=C(c1c(F)cccc1[N+](=O)[O-])N2` [Compound 125, 5-(2-fluoro-6-nitrophenyl)-9-methyl-1,6-dihydrobenzo[d]pyrazolo[3,4-f][1,3]diazepine], the negative-log IC50 (pIC50) in assay [1] was 6.00 to 7.00; in assay [2], 7.00 to 8.00.

For the molecule `Cc1ccc2c(c1)-c1[nH]ncc1N=C(c1c(F)cc(NCCF)cc1F)N2` [Compound 126, 3,5-difluoro-N-(2-fluoroethyl)-4-(9-methyl-1,6-dihydrobenzo[d]pyrazolo[3,4-f][1,3]diazepin-5-yl)aniline], the pIC50 in assay [1] is 6.00 to 7.00; in assay [2], 7.00 to 8.00.

With `COc1cc2c(cn1)NC(c1c(F)cccc1F)=Nc1cn[nH]c1-2` [Compound 127, 5-(2,6-difluorophenyl)-9-methoxy-1,6-dihydropyrazolo[4,3-d]pyrido[4,3-f][1,3]diazepine], the pIC50 in assay [1] and in assay [2] was 7.00 to 8.00 in each case.

As to `Fc1cccc(F)c1C1=Nc2ccccc2-c2[nH]nc(Cl)c2N1` [Compound 135, 3-chloro-5-(2,6-difluorophenyl)-1,4-dihydrobenzo[d]pyrazolo[3,4-f][1,3]diazepine], the pIC50 in assay [1] and in assay [2] was 7.00 to 8.00 throughout.

Take `Cc1cc(F)c2c(c1)-c1[nH]ncc1NC(c1c(F)cccc1F)=N2` [Compound 138, 5-(2,6-difluorophenyl)-7-fluoro-9-methyl-1,4-dihydrobenzo [d]pyrazolo[3,4-f][1,3]diazepine]: the pIC50 in assay [1] was 6.00 to 7.00; in assay [2], 7.00 to 8.00.

Consider `Cc1ccc2c(c1)-c1[nH]nc(Cl)c1NC(c1c(F)cccc1F)=N2` [Compound 143, 3-chloro-5-(2,6-difluorophenyl)-9-methyl-1,4-dihydrobenzo[d]pyrazolo [3,4-f][1,3]diazepine], for which the values for the pIC50 in assay [1] and in assay [2] were 6.00 to 7.00 and 7.00 to 8.00, respectively.

Regarding `CSc1n[nH]c2c1NC(c1c(F)cccc1F)=Nc1ccccc1-2` [Compound 146, 5-(2,6-difluorophenyl)-3-(methylthio)-1,4-dihydrobenzo[d]pyrazolo [3,4-f][1,3]diazepine], the pIC50 in assay [1] and in assay [2] was 6.00 to 7.00 each time.

On to `Fc1cccc(F)c1C1=Nc2cn[nH]c2-c2cc(Cl)ncc2N1` [Compound 147, 9-chloro-5-(2,6-difluorophenyl)-1,6-dihydropyrazolo[4,3-d]pyrido[4,3-f][1,3]diazepine], for which the pIC50 in assay [1] and in assay [2] was 7.00 to 8.00 each time.

With `OCCNc1cc(F)c(C2=Nc3c[nH]nc3-c3ccccc3N2)c(F)c1` [Compound 150, 2-((4-(2,6-dihydrobenzo[d]pyrazolo[3,4-f][1,3]diazepin-5-yl)-3,5-difluorophenyl)amino)ethan-1-ol], the pIC50 in assay [1] and in assay [2] was 6.00 to 7.00 each time.

Consider `Cc1ccc2c(c1)-c1[nH]ncc1NC(c1c(Cl)cccc1Cl)=N2` [Compound 152, 5-(2,6-dichlorophenyl)-9-methyl-1,4-dihydrobenzo[d]pyrazolo[3,4-f][1,3]diazepine], for which the pIC50 in assay [1] and in assay [2] was 6.00 to 7.00 throughout.

With `Fc1cccc(Cl)c1C1=Nc2cc(OC3CCOCC3)ccc2-c2[nH]ncc2N1` [Compound 155, 5-(2-chloro-6-fluorophenyl)-8-((tetrahydro-2H-pyran-4-yl)oxy)-1,4-dihydrobenzo[d]pyrazolo[3,4-f][1,3]diazepine], the negative-log IC50 (pIC50) in assay [1] and in assay [2] was 7.00 to 8.00 in each case.

As for `Cc1cc2c(cc1C(=O)O)NC(c1c(F)cccc1F)=Nc1cn[nH]c1-2` [Compound 156, 5-(2,6-difluorophenyl)-9-methyl-1,6-dihydrobenzo[d]pyrazolo[3,4-f][1,3]diazepine-8-carboxylic acid], the pIC50 in assay [1] is 7.00 to 8.00; in assay [2] it was 6.00 to 7.00.

As for `Cc1cc2c(cc1C(=O)NC1CCOCC1)N=C(c1c(F)cccc1F)Nc1cn[nH]c1-2` [Compound 157, 5-(2,6-difluorophenyl)-9-methyl-N-(tetrahydro-2H-pyran-4-yl)-1,4-dihydrobenzo[d]pyrazolo[3,4-f][1,3]diazepine-8-carboxamide], the pIC50 was more than 8.00 in assay [1] and 6.00 to 7.00 in assay [2].

Take `COc1ccc2c(c1)N=C(c1c(F)cccc1Cl)Nc1cn[nH]c1-2` [Compound 158, 5-(2-chloro-6-fluorophenyl)-8-methoxy-1,4-dihydrobenzo[d]pyrazolo[3,4-f][1,3]diazepine]: the pIC50 in assay [1] and in assay [2] was 7.00 to 8.00 each time.

In the case of `Fc1cccc(F)c1C1=Nc2cc(-c3ccn[nH]3)ccc2-c2[nH]ncc2N1` [Compound 159, 5-(2,6-difluorophenyl)-8-(1H-pyrazol-5-yl)-1,4-dihydrobenzo[d]pyrazolo[3,4-f][1,3]diazepine], the negative logarithm of the IC50 (pIC50) in assay [1] and in assay [2] was 7.00 to 8.00 throughout.

As for `Fc1cccc(Cl)c1C1=Nc2cc(-c3ccn[nH]3)ccc2-c2[nH]ncc2N1` [Compound 160, 5-(2-chloro-6-fluorophenyl)-8-(1H-pyrazol-5-yl)-1,4-dihydrobenzo[d]pyrazolo[3,4-f][1,3]diazepine], the pIC50 in assay [1] and in assay [2] was 7.00 to 8.00 throughout.

As for `Cc1ccc2c(c1)-c1[nH]ncc1NC(c1c(F)cccc1Br)=N2` [Compound 161, 5-(2-bromo-6-fluorophenyl)-9-methyl-1,4-dihydrobenzo[d]pyrazolo[3,4-f][1,3]diazepine], the pIC50 in assay [1] was 6.00 to 7.00; in assay [2], 7.00 to 8.00.

For the molecule `CC(=O)Nc1cccc(-c2ccc3c(c2)N=C(c2c(F)cccc2F)Nc2cn[nH]c2-3)c1` [Compound 162, N-(3-(5-(2,6-difluorophenyl)-1,4-dihydrobenzo[d]pyrazolo[3,4-f][1,3]diazepin-8-yl)phenyl)acetamide], the pIC50 was more than 8.00 in assay [1] and 7.00 to 8.00 in assay [2].

Turning to `Cc1ccc2c(c1)-c1[nH]ncc1NC(c1c(F)cccc1I)=N2` [Compound 163, 5-(2-fluoro-6-iodophenyl)-9-methyl-1,4-dihydrobenzo[d]pyrazolo[3,4-f][1,3]diazepine], the pIC50 in assay [1] and in assay [2] was 6.00 to 7.00 in each case.

On to `COC(=O)Nc1ccc2c(c1)N=C(c1c(F)cccc1F)Nc1c[nH]nc1-2` [Compound 164, methyl(5-(2,6-difluorophenyl)-2,4-dihydrobenzo[d]pyrazolo[3,4-f][1,3]diazepin-8-yl)carbamate], for which the pIC50 in assay [1] and in assay [2] was 7.00 to 8.00 in each case.

In the case of `COC(=O)Nc1ccc2c(c1)-c1[nH]ncc1NC(c1c(F)cccc1F)=N2` [Compound 165, methyl(5-(2,6-difluorophenyl)-1,4-dihydrobenzo[d]pyrazolo[3,4-f][1,3]diazepin-9-yl)carbamate], the negative-log IC50 (pIC50) in assay [1] is 6.00 to 7.00; in assay [2] it was more than 8.00.

For the molecule `Cc1cc(F)c2c(c1)-c1[nH]nc(Cl)c1NC(c1c(F)cccc1F)=N2` [Compound 166, 3-chloro-5-(2,6-difluorophenyl)-7-fluoro-9-methyl-1,4-dihydrobenzo[d]pyrazolo[3,4-f][1,3]diazepine], the values for the pIC50 in assay [1] and in assay [2] were 6.00 to 7.00 and 7.00 to 8.00, respectively.
